A short description of data set [1]: Glutathione binding assay. The data set is classed as physicochemical. The note with it: 5 mM glutathione, 10 μM inhibitor, potassium phosphate buffer, room temperature, HPLC. Here is the method:
A calculated value (e.g (1/Btk IC50)/Glutathione conjugation rate) as shown in the Table 2) is used to compare compounds for their ratio between potency at inhibiting their target and their non-specific binding to other SH groups, such as those in glutathione. […] Calculated ratios such as these are used to quantitatively compare different compounds and select compounds for further study.
For the glutathione binding assays, 5 mM glutathione, 10 μM Btk inhibitor in DMSO (10 μL) and 6 equivalents of N′N′ Diisopropyl ethyl amine were combined in 1 mL potassium phosphate buffer. The mixture was incubated for 0, 15, 60 minutes at room temperature and the reaction was stopped with 10 equivalents of formic acid. 50 μL of each reaction mixture was injected on HPLC (Mobil Phase A: 0.2% formic acid in water, Mobile Phase B: 0.2% formic acid in acetonitrile, HPLC Column: Metasil Basic 3μ, 150×4.6 mm, 10% B, Gradient: 10% to 90% B, Detection: UV/Vis […]). Rate of reaction was reported as nmole GSH conjugate conversion per minute from the normalized ratio for area under the curve from HPLC chromatograms for both GSH conjugate and the parent.

The subject of a further data set is lymphoma cell line DOHH2. Nature of the data set: DOHH2 cell proliferation assay (Alamar Blue). The note with it: Homo sapiens, DOHH-2, 72 hours. The data set is classed as cell-based. Here is the method: (§1) After 72 hours, cell number was measured using Alamar Blue using manufacturer's protocol. A dilution series of untreated cells was run in parallel to verify that the Alamar Blue assay reliably reflected cell number and that growth conditions were not limiting. […] GI50 values were confirmed in two or more separate experiments for each cell line.
Analogs are generated that are Btk inhibitors and that are cytotoxic to the lymphoma cell line DOHH2. For the DOHH2 cell proliferation assay, cells were seeded in 96-well plates in standard growth media (RPMI+10% fetal calf serum) and compounds were added in a 9-point dilution series ranging from 10 uM to 0.04 uM with DMSO at 0.1% final concentration in all wells. After 72 hours, cell number was measured using Alamar Blue using manufacturer's protocol. A dilution series of untreated cells was run in parallel to verify that the Alamar Blue assay reliably reflected cell number and that growth conditions were not limiting.
For orientation: Alamar Blue is a resazurin reagent that responds to reducing activity.

The next data set deals with BTK (Homo sapiens (Human), UniProt Q06187). Nature of the data set: HotSpot kinase assay, BTK. The data set is classed as biochemical. The note with it: purified enzyme, 33P-ATP, 1 uM ATP.
The next data set addresses EGFR (Homo sapiens (Human), UniProt P00533). In words: HotSpot kinase assay, EGFR. The data set is classed as biochemical. The note with it: purified enzyme, 33P-ATP, 1 uM ATP; printed EFGR in Table 1.
Another data set concerns lymphoma cell lines. Nature of the data set: In vitro cell proliferation, variety of lymphoma cell lines. The note with it: 72 hours. The data set is classed as cell-based. The method, then: as §1
Data set [2] relates to MRL/lpr model of lupus (proteinuria). In words: Mouse MRL/lpr model of lupus. The data set is classed as in vivo, MRL/lpr mice. From the text:
FIG. 3 presents an illustrative line graph showing inhibition of disease progression in a mouse MRL/lpr model of lupus.

The nature of data set [3]: Plasma concentrations after oral dosing of rats. The data set is classed as in vivo, male jugular vein cannulated rats. The note with it: rat plasma, single 8 mg/kg dose by oral gavage, dosed in combination. The method, then: Blood samples were collected at 0.0833 (5 minutes), 0.333 (20 minutes), 1, 3, 6, 9, and 24 hours post-dosing from orally dosed rats.
Male jugular vein cannulated rats were administered a single dose of all test compounds at 8 mg/kg each, in combination by oral gavage. Dose volumes were adjusted based on body weight data collected immediately prior to dosing. Blood samples were collected at 0.0833 (5 minutes), 0.333 (20 minutes), 1, 3, 6, 9, and 24 hours post-dosing from orally dosed rats. The samples were collected into plasma separator Microtainer tubes with anticoagulant (lithium heparin). Plasma samples were prepared by centrifugation (5 min at 5000×g), and at least 100 μL were transferred to storage tubes and stored frozen at −80° C. Plasma samples were thawed and 75 uL aliquots were transferred to centrifuge tubes to which 10 μL aliquots of internal standard solution (1 μg/mL) were added. The samples were not diluted with blank plasma prior to further processing. Soluble proteins were precipitated by the addition of 200 μL of acetonitrile, followed by centrifugation (20 min at 16,000×g). The samples were evaporated to dryness and reconstituted in 200 μL of water containing 0.2% formic acid and 10% methanol. All samples were loaded onto an autosampler maintained at 6° C. and evaluated for concentrations of test compounds using LC-MS/MS.

Another data set deals with DLCL2 xenograft. In words: DLCL2 lymphoma xenograft model. The data set is classed as in vivo. The note with it: DLCL2 xenograft in SCID mice, dosed orally.
Data set [4] has as its system pERK / BCR signal transduction pathway in DOHH2 cells. In words: BCR pathway phosphorylation (phospho-specific antibodies) in DOHH2. The note with it: DOHH2, anti-IgM or anti-IgG cross-linking. The data set is classed as cell-based. From the text: (§2) To identify biomarkers that correlate with response to Compound 1, phosphorylation events in the BCR signal transduction pathway were investigated.
(§3) However, when we examined basal phosphorylation levels, we found higher basal phosphorylation in DOHH2 compared to Ramos, with phospho-ERK in particular indicating higher levels of basal or tonic signaling in DOHH2.

The test system of data set [5] is pERK / BCR signal transduction pathway in Ramos cells. Nature of the data set: BCR pathway phosphorylation (phospho-specific antibodies) in Ramos. The data set is classed as cell-based. The note with it: Ramos, anti-IgM or anti-IgG cross-linking.
Description: as §2, §3

For another data set, the system named is normal human B cells. In words: B cell activation after brief exposure and washout (CD69). The data set is classed as cell-based. The note with it: 1 hour exposure, washed three times, then IgM F(ab')2 stimulation for 18 hours. Here is the method:
B cells were purified from blood from healthy donors by negative selecting using the RosetteSep Human B cell enrichment cocktail. […] After incubation for 1 hour at 37° C., cells were washed three times using an 8-fold dilution in growth media for each wash. Cells were then stimulated with IgM F(ab′)2 for 18 hours at 37° C., stained with anti-CD69-PE antibody and analyzed by flow cytometry.
B cells were purified from blood from healthy donors by negative selecting using the RosetteSep Human B cell enrichment cocktail. […] After incubation for 1 hour at 37° C., cells were washed three times using an 8-fold dilution in growth media for each wash. Cells were then stimulated with 10 ug/ml of IgM F(ab′)2 for 18 hours at 37° C. Cells were then stained with anti-CD69-PE antibody and analyzed by flow cytometry using standard conditions.

The test system of a further data set is mast cell degranulation. Nature of the data set: Mouse passive cutaneous anaphylaxis model. The note with it: single oral dose, increasing doses, 1 hour before DNP-BSA challenge. The data set is classed as in vivo, mice. The method, then: FIG. 4 presents an illustrative bar graph showing inhibition of mast cell degranulation in a mouse passive cutaneous anaphylaxis model. […] After one hour, animals were challenged with an intravenous injection of DNP-BSA and Evans Blue dye and the area of extravasation was measured.
Mice were sensitized with an intradermal injection of monoclonal anti-DNP-IgE in the back. […] After one hour, animals were challenged with an intravenous injection of DNP-BSA and Evans Blue dye. Mast cell degranulation leads to vascular permeability and the distribution of the dye into the skin of the back. The area of extravasation after 1 hour is measured.

The next data set concerns Ramos cells. In words: Cell proliferation, Ramos cell line. The data set is classed as cell-based. Here is the method:
as §1, §2

The test system of the next data set is DOHH2 xenograft. In words: DOHH2 lymphoma xenograft model. The data set is classed as in vivo. The note with it: DOHH2 xenograft in SCID mice, dosed orally.
Data set [6] has as its system collagen-induced arthritis (paw inflammation). In words: Collagen-induced arthritis in the mouse. The data set is classed as in vivo, male DBA/1OlaHsd mice. The method, then:
[…]. Compound for vehicle was dosed orally once per day starting at day 1. Dexamethasone was included as a positive control. Paw inflammation was scored from 0-5 and averaged across all paws from all animals for each group in the study.
. After paw inflammation was established, animals were randomized and Compound for vehicle was dosed orally once per day starting at day 1. Paw inflammation was scored from 0-5 and averaged across all paws from all animals for each group in the study. […] Dexamethasone was included as a positive control.

The test system of data set [7] is Btk expressing B cell lymphoma cell lines. In words: Panel of nine Btk expressing B cell lymphoma cell lines, sensitivity vs basal pERK. The data set is classed as cell-based. The method, then: as §1
A panel of nine Btk expressing B cell lymphoma cell lines was screened for basal pERK levels.

Consider three compounds from US9181263B2, “Inhibitors of bruton's tyrosine kinase” (PHARMACYCLICS, INC., priority 2007, dated 2015).

Entries after “also recorded” stand apart in the source; their conditions may differ.

One may read the GI50 as the concentration giving 50% growth inhibition. Higher therefore signals less potent growth inhibition. One may read the IC50 as the concentration that inhibits the measured activity by half.

Sequence of EGFR (P00533 25-1210): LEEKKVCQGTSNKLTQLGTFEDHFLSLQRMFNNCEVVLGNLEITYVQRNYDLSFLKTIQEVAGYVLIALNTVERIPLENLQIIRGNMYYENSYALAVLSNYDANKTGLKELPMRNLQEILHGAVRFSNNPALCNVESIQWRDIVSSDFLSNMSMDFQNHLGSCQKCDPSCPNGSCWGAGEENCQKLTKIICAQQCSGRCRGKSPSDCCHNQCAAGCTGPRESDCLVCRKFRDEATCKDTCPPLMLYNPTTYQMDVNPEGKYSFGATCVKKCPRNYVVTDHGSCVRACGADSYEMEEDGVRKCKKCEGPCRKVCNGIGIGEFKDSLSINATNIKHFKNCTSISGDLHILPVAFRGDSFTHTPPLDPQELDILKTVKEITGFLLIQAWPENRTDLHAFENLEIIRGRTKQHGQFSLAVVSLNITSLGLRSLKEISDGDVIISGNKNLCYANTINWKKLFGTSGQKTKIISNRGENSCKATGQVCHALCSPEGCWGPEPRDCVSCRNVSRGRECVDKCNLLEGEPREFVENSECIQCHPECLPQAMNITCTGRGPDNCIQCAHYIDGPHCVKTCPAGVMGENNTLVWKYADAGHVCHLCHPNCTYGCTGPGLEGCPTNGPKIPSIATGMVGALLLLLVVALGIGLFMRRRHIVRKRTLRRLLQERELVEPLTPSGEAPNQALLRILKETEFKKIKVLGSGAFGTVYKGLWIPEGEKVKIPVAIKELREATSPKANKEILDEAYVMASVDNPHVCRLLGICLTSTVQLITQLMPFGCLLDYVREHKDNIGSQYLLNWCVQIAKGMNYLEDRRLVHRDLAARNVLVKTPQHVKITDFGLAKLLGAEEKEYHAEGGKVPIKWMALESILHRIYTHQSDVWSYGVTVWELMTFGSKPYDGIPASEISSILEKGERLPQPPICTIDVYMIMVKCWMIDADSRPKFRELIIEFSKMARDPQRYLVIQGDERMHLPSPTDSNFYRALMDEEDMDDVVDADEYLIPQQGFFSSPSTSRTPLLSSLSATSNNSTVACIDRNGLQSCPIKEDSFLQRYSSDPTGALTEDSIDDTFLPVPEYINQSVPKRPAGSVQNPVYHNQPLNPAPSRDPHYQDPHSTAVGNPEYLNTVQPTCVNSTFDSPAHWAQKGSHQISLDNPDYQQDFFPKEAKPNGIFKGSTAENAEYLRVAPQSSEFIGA
Sequence of BTK (Q06187 whole entry): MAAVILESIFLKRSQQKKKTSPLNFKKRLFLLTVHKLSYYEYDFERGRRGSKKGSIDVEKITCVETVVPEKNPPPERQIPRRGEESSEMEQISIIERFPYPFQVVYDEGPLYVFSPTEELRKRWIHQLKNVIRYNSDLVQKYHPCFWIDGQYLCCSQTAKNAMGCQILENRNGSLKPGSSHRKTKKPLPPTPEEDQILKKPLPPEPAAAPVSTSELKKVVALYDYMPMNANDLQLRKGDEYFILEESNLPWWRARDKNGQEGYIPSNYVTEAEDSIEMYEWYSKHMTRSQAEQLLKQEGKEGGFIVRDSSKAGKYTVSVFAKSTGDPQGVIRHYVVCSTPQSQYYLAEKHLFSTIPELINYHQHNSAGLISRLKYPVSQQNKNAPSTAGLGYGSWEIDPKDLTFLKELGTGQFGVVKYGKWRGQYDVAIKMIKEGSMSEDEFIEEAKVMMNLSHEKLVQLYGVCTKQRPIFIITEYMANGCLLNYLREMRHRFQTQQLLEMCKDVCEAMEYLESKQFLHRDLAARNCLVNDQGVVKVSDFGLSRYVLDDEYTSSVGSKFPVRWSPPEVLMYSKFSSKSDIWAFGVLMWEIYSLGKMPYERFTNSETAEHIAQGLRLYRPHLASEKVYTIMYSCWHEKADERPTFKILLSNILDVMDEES

Regarding `CN(C)C/C=C/C(=O)N1CCC[C@@H]1Cn1nc(-c2ccc(Oc3ccccc3)cc2)c2c(N)ncnc21` [Compound 11, (E)-1-((R)-2-((4-amino-3-(4-phenoxyphenyl)-1H-pyrazolo[3,4-d]pyrimidin-1-yl)methyl)pyrolidin-1-yl)-4-(dimethylamino)but-2-en-1-one], the “Glutathione Conj Rate” value in data set [1] was 0.004525 nmol/min. The compound also gave a concentration for 50% growth inhibition (GI50) with lymphoma cell line DOHH2 of over 10000 nM.

`CN(C/C=C/C(=O)N1CCCC(n2nc(-c3ccc(Oc4ccccc4)cc3)c3c(N)ncnc32)C1)CCO` (centres unmarked) [Compound 3]: the IC50 against BTK came out at 2.1 nM; against EGFR, 74.5 nM.

For `C=CC(=O)N1CCC[C@@H](n2nc(-c3ccc(Oc4ccccc4)cc3)c3c(N)ncnc32)C1` [Compound 1], the “lymphoma tumor cell growth” value in the data set on lymphoma cell lines was “inhibits lymphoma tumor cell growth”. In addition, the “proteinuria (urine protein levels)” value in [2] (3.125 mg/kg orally once per day until 20 weeks of age), in data set [2] (12.5 mg/kg orally once per day until 20 weeks of age) and in [2] (50 mg/kg orally once per day until 20 weeks of age) was “significantly reduced proteinuria” in each case. Besides, in [3], the in vivo half-life entry is listed as “short half-life in vivo”. For the same compound, in [1], the “Glutathione Conj Rate” value was found to be 0.398 nmol/min. The tumor growth entry in the data set with DLCL2 xenograft and in the data set with DOHH2 xenograft was “inhibition of tumor growth; also recorded: inhibits tumor growth” each time. For the same compound, the “BCR-stimulus induced phosphorylation events” value in data set [4] and in data set [5] was “inhibits most BCR-stimulus induced phosphorylation events” each time. The “B cell activation (CD69)” value with normal human B cells is “sufficient to inhibit B cell activation”. For the same compound, in the data set with mast cell degranulation, the “amount of Evans Blue release (area of extravasation)” value was “significantly decrease the amount of Evans Blue release”. Further, in the data set on Ramos cells, the “sensitivity of cell line to compound” value is “resistant”. In addition, the paw inflammation result is “significantly reduced the increase in paw inflammation” in data set [6] (3.125 mg/kg orally once per day, to day 11); “reduced the increase in paw inflammation” in data set [6] (12.5 mg/kg intermittent dosing: days 1, 2, 3 or days 9, 10, 11 of an 11-day period); “regressed inflammation” in data set [6] (12.5 mg/kg orally once per day, to day 11); “regressed inflammation” in data set [6] (50 mg/kg orally once per day, to day 11). Further, the GI50 in data set [7] (5 of the seven lines with significantly higher basal pERK) was under 1300 nM. In [7] (the two cell lines with low pERK levels), the “sensitivity of cell lines to compound” value is on record as “resistant”.
